The values below come from patent US20110008347A1, “CANCER-RELATED PROTEIN KINASES” (Agency for Science ,Technology and Research, priority 2006, published 2011).

Series [1] concerns HEK293. In words: Viability of non-cancerous cell line HEK293 exposed to FGFR inhibitor. Format: cell-based. To be noted: non-cancerous cell line HEK293, data not shown.
Series [2] has as its system HuH7 cells. Put plainly: AFP production in HuH7 cells after exposure to FGFR inhibitor. Format: cell-based, human. To be noted: HuH7, 0, 1, 5 and 10 μM (FIG. 15). The procedure: (§1) Supernatants from the respective FGF19 stimulation and siRNA experiments were subjected to AFP ELISA assay using the DELFIA hAFP kit (Perkin Elmer, Boston, Mass.), performed according to manufacturer's protocol. The readout was converted to concentration (ng/mL) using the standard curve derived from the solutions provided in the kit. AFP production by the cells was subsequently normalized to the number of cells in each well. The cell number was determined by ATP bioluminescence Cell-Titer Glo assay (Promega, Madison, Wis.) using protocol as described by the manufacturer.

The test system of series [3] is HuH7. In words: Viability of HCC cell lines (HuH7) exposed to FGFR inhibitor. Format: cell-based, human.
In series [4] the target is T1, FGFR4 (Homo sapiens, UniProt P22455). Put plainly: FGF19 ligand stimulation, AFP ELISA, HepG2. Format: cell-based. To be noted: HepG2, 50 and 100 ng/ml FGF19 (FIG. 12). Details: endogenous in cells. The procedure: (§2) HepG2 or HuH7 cells were seeded into 96-well plates and allowed to attach overnight. They were serum-starved for 24 h before addition of heparin. Two hours later, FGF19 (R&D Systems, Minneapolis, Minn., 50-100 ng/mL final concentration) was administered. After 8 hours, aliquots of the supernatant were harvested for AFP ELISA assay as described below. Similar FGF19 stimulations were performed in 10 cm dishes for immunoblot detection of phospho-FRS2α.
as §1
On the technique in general: In an ELISA, binding on a coated surface is turned into a signal by an enzyme label.

For series [5], the target named is T1, FGFR4. Put plainly: FGF19 ligand stimulation, AFP ELISA, HuH7. Format: cell-based. Details: stimulation of FGFR4 in the HCC cell line HuH7 using 50 and 100 ng/ml of the specific ligand FGF19; endogenous in cells; host or cells: HuH7. The procedure:
as §2, §1

T1 sequence (P22455 22-802): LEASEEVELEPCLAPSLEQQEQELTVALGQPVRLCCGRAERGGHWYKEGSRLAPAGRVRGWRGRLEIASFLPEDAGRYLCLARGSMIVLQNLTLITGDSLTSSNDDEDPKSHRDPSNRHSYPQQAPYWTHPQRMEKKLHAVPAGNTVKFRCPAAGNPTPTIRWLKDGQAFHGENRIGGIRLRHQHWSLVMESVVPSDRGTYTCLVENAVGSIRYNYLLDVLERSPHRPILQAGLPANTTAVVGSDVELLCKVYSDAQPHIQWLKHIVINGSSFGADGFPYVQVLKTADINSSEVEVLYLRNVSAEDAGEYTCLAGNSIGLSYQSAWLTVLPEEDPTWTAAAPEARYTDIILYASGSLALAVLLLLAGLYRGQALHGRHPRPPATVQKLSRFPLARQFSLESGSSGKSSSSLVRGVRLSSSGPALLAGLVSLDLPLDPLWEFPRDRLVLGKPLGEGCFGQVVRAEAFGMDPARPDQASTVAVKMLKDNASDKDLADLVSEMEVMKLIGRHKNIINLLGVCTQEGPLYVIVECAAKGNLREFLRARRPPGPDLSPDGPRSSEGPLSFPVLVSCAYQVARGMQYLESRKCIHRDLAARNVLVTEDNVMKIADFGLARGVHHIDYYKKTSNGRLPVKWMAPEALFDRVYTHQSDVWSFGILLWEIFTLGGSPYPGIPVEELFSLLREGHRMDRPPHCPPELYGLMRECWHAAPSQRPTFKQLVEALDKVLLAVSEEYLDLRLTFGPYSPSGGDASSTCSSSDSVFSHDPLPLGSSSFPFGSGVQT

The compound `CCN(CC)CCCCNc1ncc2cc(-c3cc(OC)cc(OC)c3)c(NC(=O)NC(C)(C)C)nc2n1` [PD173074] registered an LD50 in series [1] greater than 50 µM. Further, the AFP production entry in series [2] is “blocks AFP production”. Also, the anti-proliferative effect entry in series [3] (HCC cell lines vs. non-cancerous cell line HEK293) was “exquisite anti-proliferative effect”. Moreover, the “anti-proliferative effect (viability)” value in series [3] (HuH7 (FIG. 16)) was “exquisite anti-proliferative effect”.

For the compound “FGF19: specific ligand used for stimulation of FGFR4 (R&D Systems)”, the AFP production entry in series [4] was “elevated AFP production”; in series [5] (HCC cell lines (FIG. 11, FIG. 12)), “elevated AFP production”; in series [5] (HuH7, 50 and 100 ng/ml FGF19 (FIG. 11)), “elevated AFP production”.
